# According to patent US12448388B2, “PRMT5 inhibitors and uses thereof” (Gilead Sciences, Inc., priority 2023, dated 2025):
# Like-named read-outs stand apart in the source and are kept apart here.
# System: HCT116 MTAP-deleted cell lines
# Assay: Cell viability assay (CellTiter-Glo, 7 days), HCT116 MTAP-deleted
# Type: cell-based
# Settings: Homo sapiens, HCT-116
# How it was run: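 Dose-response, PRMT5 inhibitors from DMSO serial dilution, pre-spotted; cells seeded onto compound plates. 7 d, 37 °C/5% CO2/90% RH. Readout: CTG luminescence → CC50.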
# [1] = cell viability assay, HCT116 MTAP-deleted, class symbols, read-out: CC50
# [2] = cell viability, HCT116 MTAP-deleted, class symbols, read-out: CC50
SMILES,CC50 [1],CC50 [2],other results
"Nc1nc2cnc(C(=O)N3CC[C@H]4C[C@@H]3c3ccc(OC(F)(F)F)cc3O4)cc2n2cncc12 (racemic) [Ff-373, Rac-(4-aminoimidazo[1,5-a]pyrido[3,4-e]pyrazin-8-yl)((2S,6R)-9-(trifluoromethoxy)-3,4-dihydro-2H-2,6-methanobenzo[b][1,5]oxazocin-5(6H)-yl)methanone]",< 100 nM,,
"CC1(C)C[C@@H]2Oc3nc(C(F)(F)F)ccc3[C@@H]2N(C(=O)c2cc3c(cc2F)nc(N)c2cncn23)C1 (racemic) [Ff-384, Rac-(4-amino-7-fluoroimidazo[1,5-a]quinoxalin-8-yl)((4aS,9bS)-3,3-dimethyl-7-(trifluoromethyl)-3,4,4a,9b-tetrahydrofuro[2,3-b:4,5-b′]dipyridin-1(2H)-yl)methanone]",< 100 nM,,
"Cc1ncn2c1c(N)nc1cc(F)c(C(=O)N3CC(C)(C)C[C@@H]4Oc5nc(C(F)(F)F)ccc5[C@@H]43)cc12 (racemic) [Ff-385, Rac-(4-amino-7-fluoro-3-methylimidazo[1,5-a]quinoxalin-8-yl)((4aS,9bS)-3,3-dimethyl-7-(trifluoromethyl)-3,4,4a,9b-tetrahydrofuro[2,3-b:4,5-b′]dipyridin-1(2H)-yl)methanone]",< 100 nM,,
"Cc1ncn2c1c(N)nc1cnc(C(=O)N3C[C@H](C)C[C@@H]4CCc5cc(C(F)(F)F)ccc5[C@@H]43)cc12 (racemic) [Ff-462, Rac-(4-amino-3-methylimidazo[1,5-a]pyrido[3,4-e]pyrazin-8-yl)((3R,4aS,10bR)-3-methyl-8-(trifluoromethyl)-3,4,4a,5,6,10b-hexahydrobenzo[h]quinolin-1(2H)-yl)methanone]",100 to 1000 nM,,
"CN(C(=O)c1cc2c(cc1F)nc(N)c1cncn12)[C@@H]1COc2cc([C@@H]3C[C@H]3c3ccccc3)ccc21 (racemic) [Ff-473, Trans-4-amino-7-fluoro-N-methyl-N-((3S)-6-(2-phenylcyclopropyl)-2,3-dihydrobenzofuran-3-yl)imidazo[1,5-a]quinoxaline-8-carboxamide]",< 100 nM,,
"CN(C(=O)c1cc2c(cc1F)nc(N)c1cncn12)[C@@H]1COc2cc([C@@H]3C[C@H]3C3CC3)ccc21 (racemic) [Ff-474, Trans-N-((3S)-6-([1,1′-bi(cyclopropan)]-2-yl)-2,3-dihydrobenzofuran-3-yl)-4-amino-7-fluoro-N-methylimidazo[1,5-a]quinoxaline-8-carboxamide]",< 100 nM,,
"CN(C(=O)c1cc2c(cc1F)nc(N)c1cncn12)[C@@H]1COc2cc(C3CCOC3)ccc21 (mixture of isomers) [Ff-484, Rac-4-amino-7-fluoro-N-methyl-N-((3S)-6-(tetrahydrofuran-3-yl)-2,3-dihydrobenzofuran-3-yl)imidazo[1,5-a]quinoxaline-8-carboxamide]",< 100 nM,,
"Cc1ncc2c(N)nc3cnc(C(=O)N4C(C)CCC5Oc6cc(C(F)(F)F)ccc6C54)cc3n12 (racemic) [Ff-586, Rac-(4-amino-1-methylimidazo[1,5-a]pyrido[3,4-e]pyrazin-8-yl)(2-methyl-7-(trifluoromethyl)-3,4,4a,9b-tetrahydrobenzofuro[3,2-b]pyridin-1(2H)-yl)methanone]",< 100 nM,,
"Cc1ncn2c1c(N)nc1cnc(C(=O)N3C[C@H](F)CC4Oc5cc(C(F)(F)F)ccc5C43)cc12 (mixture of isomers) [Ff-650, Rac-(4-amino-3-methylimidazo[1,5-a]pyrido[3,4-e]pyrazin-8-yl)((3R,4aS,9bS)-3-fluoro-7-(trifluoromethyl)-3,4,4a,9b-tetrahydrobenzofuro[3,2-b]pyridin-1(2H)-yl)methanone]",< 100 nM,,
"Nc1nc2cnc(C(=O)N3CC4(CCC4)C[C@@H]4Oc5cc(C(F)(F)F)ccc5[C@@H]43)cc2n2cncc12 (racemic) [Ff-688, Rac-(4-aminoimidazo[1,5-a]pyrido[3,4-e]pyrazin-8-yl)((4aS,9bS)-7-(trifluoromethyl)-4a,9b-dihydro-2H-spiro[benzofuro[3,2-b]pyridine-3,1′-cyclobutan]-1(4H)-yl)methanone]",< 100 nM,,
"Cc1ncn2c1c(N)nc1cc(Cl)c(C(=O)N3CCC[C@@H]4Oc5nc(C(F)(F)F)ccc5[C@@H]43)cc12 (racemic) [Fg-29, Rac-(4-amino-7-chloro-3-methylimidazo[1,5-a]quinoxalin-8-yl)((4aS,9bS)-7-(trifluoromethyl)-3,4,4a,9b-tetrahydrofuro[2,3-b:4,5-b′]dipyridin-1(2H)-yl)methanone]",< 100 nM,,
"Nc1nc2cc(F)c(C(=O)N3CCO[C@@H]4CCc5ccccc5[C@@H]43)cc2n2cncc12 (relative stereo) [Ff-427, cis-2,3,4a,5,6,10b-hexahydrobenzo[f][1,4]benzoxazin-1-yl-(4-amino-7-fluoro-imidazo[1,5-a]quinoxalin-8-yl)methanone]",100 to 1000 nM,,
"Nc1nc2cc(F)c(C(=O)N3CCO[C@H]4Cc5cc(Br)ccc5[C@H]43)cc2n2cncc12 (single isomer, unassigned) [Ff-75]",,100 to 1000 nM,
"Nc1nc2cc(F)c(C(=O)N3CCO[C@@H]4Cc5cc(Br)ccc5[C@@H]43)cc2n2cncc12 (single isomer, unassigned) [Ff-76]",,< 100 nM,
"C[C@@H]1CN(C(=O)c2cc3c(cc2F)nc(N)c2cncn23)[C@H]2c3ccc(C(F)(F)F)cc3C[C@H]2O1 (single isomer, unassigned) [Ff-77]",,< 100 nM,
"C[C@@H]1CN(C(=O)c2cc3c(cc2F)nc(N)c2cncn23)[C@@H]2c3ccc(C(F)(F)F)cc3C[C@@H]2O1 (single isomer, unassigned) [Ff-78]",,< 100 nM,
"C[C@H]1CN(C(=O)c2cc3c(cc2F)nc(N)c2cncn23)[C@@H]2c3ccc(C(F)(F)F)cc3C[C@@H]2O1 (single isomer, unassigned) [Ff-80]",,< 100 nM,
"Nc1nc2cc(F)c(C(=O)N3CCO[C@H]4Cc5cc(C(F)(F)F)ccc5[C@H]43)cc2n2cncc12 (single isomer, unassigned) [Ff-83]",,100 to 1000 nM,
"Nc1nc2cc(F)c(C(=O)N3CCCC[C@@H]3c3ccc(C(F)(F)F)cc3F)cc2n2cncc12 (single isomer, unassigned) [Ff-151]",,< 100 nM,
"Nc1nc2cc(F)c(C(=O)N3CCCC[C@H]3c3ccc(C(F)(F)F)cc3F)cc2n2cncc12 (single isomer, unassigned) [Ff-152]",,100 to 1000 nM,
"Nc1nc2cc(F)c(C(=O)N3CC4(CC[C@@H]3c3ccc(C(F)(F)F)cc3)CC4)cc2n2cncc12 (single isomer, unassigned) [Ff-154]",,,CC50: < 100 nM
"Nc1nc2cc(F)c(C(=O)N3CC4(CC[C@H]3c3ccc(C(F)(F)F)cc3)CC4)cc2n2cncc12 (single isomer, unassigned) [Ff-155]",,,CC50: 100 to 1000 nM
"C[C@H]1CN(C(=O)c2cc3c(cc2F)nc(N)c2cncn23)[C@H]2c3ccc(Br)c(F)c3C[C@H]2O1 (single isomer, unassigned) [Ff-164]",,< 100 nM,
"C[C@H]1CN(C(=O)c2cc3c(cc2F)nc(N)c2cncn23)[C@H]2c3ccc(C(F)F)c(F)c3C[C@H]2O1 (single isomer, unassigned) [Ff-171]",,< 100 nM,
"C[C@@H]1CN(C(=O)c2cc3c(cc2F)nc(N)c2cncn23)[C@H]2c3cc(F)c(C(F)F)cc3C[C@H]2O1 (single isomer, unassigned) [Ff-172]",,< 100 nM,
"C[C@H]1CN(C(=O)c2cc3c(cc2F)nc(N)c2cncn23)[C@H]2c3ccc(OC(F)(F)F)cc3C[C@H]2O1 (single isomer, unassigned) [Ff-184]",,< 100 nM,
